Results on one compound are retold here after publication PMC10627047, “Flavone-based dual PARP-Tubulin inhibitor manifesting efficacy against endometrial cancer” (Journal of Enzyme Inhibition and Medicinal Chemistry, 2023).

The test system of test [1] is Ishikawa cells. The experiment in a line: Acridine orange staining, autophagy. It is filed as cell-based, human. Conditions: Ishikawa cells, 0.1, 0.5 and 1 µM. How it is done: Compound 14 was evaluated for its ability to induce autophagy by acridine orange staining assay. […] This shift towards red fluorescence represents an elevation in autophagic flux, reflecting an active process of cellular degradation and recycling.
The Autophagy induction ability of compound 14 was assessed by acridine orange staining which is used to measure the autophagic acidic vesicular organnelles. Ishikawa cell were seeded in a six-well plate and treated with compound 14 for 48 h. Incubation of the cells was done with 1 mg/mL Acridine orange (Cat no. A9231) before the termination of the experiment. Cells were then washed with PBS and then analysed with a fluorescence microscope. […] A9231.

For test [2], the system named is Ishikawa cells. The experiment in a line: Cell cycle analysis (flow cytometry). It is filed as cell-based, human. Conditions: 0.5 µM and 1 µM, 48 h, vs control group. How it is done: Furthermore, the regulatory effect of compound 14 in the cell cycle distribution of Ishikawa cancer cells was evaluated via flow cytometric analysis. Ishikawa cells seeded on a 6-well plate (3 × 10^5 cells/well) were treated with compound 14 for 48 h. After 48 h treatment of Ishikawa cells with compound 14, the cell cycle started to be arrested at the G2/M phase.
Cells were treated with compound 14 (10, 50, 100, 500 and 1000 nM) for […], collected and washed once with PBS. The pellet was then fixed in 70% ethanol overnight, followed by one washing with PBS and incubation with RNAse A for 90 min at 37 °C. Cells were then stained with PI and acquired in FACS. Analysis of the data was done by Modfit software (Verity Software House Inc., Topsham, ME) for the proportions of different cell cycle phases.[69]

The test system of another test is Ishikawa cell lines. As to the kind of experiment: In-vitro cytotoxicity (MTT cell viability assay). It is filed as cell-based. Conditions: Homo sapiens; Ishikawa cell lines, MTT, 48 h incubation, mean ± SD, at least three experiments; read-out: IC50 values (Ishikawa cell lines, µM ± SD), in-vitro growth inhibition. How it is done:
The cell growth inhibitory effects of the synthesised compounds were evaluated against Ishikawa cell lines. […] Forth, the synthesised compounds bearing a substituted phenyl ring at position 2 of the biaryl arm bearing benzopyrans were profiled for the cytotoxic effects. Noteworthy to mention that diverse substitutions with varied electronic effects viz fluorine (−I, +R), methoxy (−I, +R), and nitro (−I and − R) were made on the phenyl ring (position 2 of benzopyran). Also, the trimethoxy phenyl ring well established as an imperative structural feature of tubulin inhibitors was tethered to the benzopyran scaffold (20, 21).
Ishikawa cells (a human endometrial carcinoma of the epithelial cell) were kindly gifted by Dr. Geetanjali Sachdeva and Dr. Uddhav Chaudhari of National Institute for Research In Reproductive and Child Health (NIRRCH), Mumbai. […] The cells were maintained in RPMI medium supplemented with 10% Foetal bovine serum (FBS) and 100 IU/mL penicillin.
Mitochondrial activity was evaluated by MTT assay.[59] This assay is based on enzymatic reduction of the yellow-colored MTT dye to purple-colored formazan crystals by a variety of mitochondrial and cytosolic enzymes that are operational in viable cells. Briefly, […] (3000 cells/well) were seeded in 100 µL of medium into a 96-well plate and left to settle in a CO2 incubator. […] Then 150 μL of DMSO was added to each well to dissolve the formazan crystals. The optical density (OD) of each well was recorded using a microplate reader at a wavelength of 570 nm. The percentages of cell viability and growth inhibition were calculated according to the following equations. Cell viability (%) = [(OD of treated cells-OD of blank)/(OD of control-OD of blank) ×100].

Test [3] relates to Ishikawa cells. The experiment in a line: Intracellular ROS (DCFDA staining). The class given is cell-based, human. The following applies: Ishikawa cells, 100, 500 and 1000 nM, 24 h, vs untreated control. An excerpt: The intracellular ROS levels in control and compound 14-treated cells were examined using the DCFDA fluorescent dye.
Dichlorodihydrofluorescin diacetate (DCFHDA) is a fluorogenic dye that measures hydroxyl, peroxyl, and other reactive oxygen species (ROS) activity within the cell. The oxidative conversion of DCFH-DA to DCF (2′, 7′ -dichlorofluorescein) leads to the detection of intracellular ROS. As such, an increase in intracellular ROS is indicative of apoptosis in cancer cells Ishikawa cells were treated with compound-14 at 100, 500, and 1000 nM concentrations for 24 h. After 24h cells were stained with DCFHDA (20 µM) (Cat no, 287810) for 45 min. After 45 min, cells were washed with PBS buffer and analysed with a fluorescence microscope.

The target in another test is T1, Tubulin (Sus scrofa, UniProt P02550+P02554).
T1 construct: purchased Cytoskeleton T240 (kit BK006P)
As to the kind of experiment: In vitro microtubule assembly (tubulin polymerisation) assay. Conditions: treatment concentrations 0.1, 1, 5, 10 μM; mean ± SD of three experiments. It is filed as biochemical. How it is done:
The assay was performed using the tubulin polymerisation kit (BK006P,Cytoskeleton). Pure tubulin (cat. # T240) was equilibrated in 80 mM PIPES, 1 mM EGTA, 1 mM MgCl2, pH 6.8 buffer (BRB80) and centrifuged at 75 000 rpm for 10 min in an TLA-100 rotor in a centrifuge.

Another test addresses T2, PARP2 (Homo sapiens, UniProt Q9UGN5).
T2 construct: Reaction Biology Corporation (assay service)
The experiment in a line: PARP inhibitory assay (NAD/NADH-Glo endpoint, Reaction Biology). It is filed as biochemical. The following applies: 10-dose IC50, 3-fold serial dilution. How it is done: (§1) As such, PARP enzymatic activity transfers ADP-ribose from NAD + substrate into the PAR chain on histone substrate. The amount of NAD + remaining after the enzymatic activity was quantified using the Promega NAD/NADH-Glo™ assay kit, in the endpoint PARP activity assay.
(§2) Enzyme inhibition assays were performed by the Reaction Biology Corporation, Malvern, PA. (http://www.reactionbiology.com). PARP enzymatic activity transfers ADP-ribose from NAD + substrate into the PAR chain on histone substrate. […] NAD+ (Nicotinamide Adenine Dinucleotide), 500 nM; Protein substrate for PARP1, core histones from chicken, 10 µg/mL; protein substrate for PARP2, 5 µM.

For a further test, the target named is T3, PARP1 (Homo sapiens, UniProt P09874).
T3 construct: Reaction Biology Corporation (assay service)
The description is as above. The following applies: 10-dose IC50, 3-fold serial dilution. The class given is biochemical. How it is done:
as §1, §2

“And” between values parts separate entries of the source, which are not always exact repeats. Identical values can stand only once.

T3 sequence (P09874 whole entry): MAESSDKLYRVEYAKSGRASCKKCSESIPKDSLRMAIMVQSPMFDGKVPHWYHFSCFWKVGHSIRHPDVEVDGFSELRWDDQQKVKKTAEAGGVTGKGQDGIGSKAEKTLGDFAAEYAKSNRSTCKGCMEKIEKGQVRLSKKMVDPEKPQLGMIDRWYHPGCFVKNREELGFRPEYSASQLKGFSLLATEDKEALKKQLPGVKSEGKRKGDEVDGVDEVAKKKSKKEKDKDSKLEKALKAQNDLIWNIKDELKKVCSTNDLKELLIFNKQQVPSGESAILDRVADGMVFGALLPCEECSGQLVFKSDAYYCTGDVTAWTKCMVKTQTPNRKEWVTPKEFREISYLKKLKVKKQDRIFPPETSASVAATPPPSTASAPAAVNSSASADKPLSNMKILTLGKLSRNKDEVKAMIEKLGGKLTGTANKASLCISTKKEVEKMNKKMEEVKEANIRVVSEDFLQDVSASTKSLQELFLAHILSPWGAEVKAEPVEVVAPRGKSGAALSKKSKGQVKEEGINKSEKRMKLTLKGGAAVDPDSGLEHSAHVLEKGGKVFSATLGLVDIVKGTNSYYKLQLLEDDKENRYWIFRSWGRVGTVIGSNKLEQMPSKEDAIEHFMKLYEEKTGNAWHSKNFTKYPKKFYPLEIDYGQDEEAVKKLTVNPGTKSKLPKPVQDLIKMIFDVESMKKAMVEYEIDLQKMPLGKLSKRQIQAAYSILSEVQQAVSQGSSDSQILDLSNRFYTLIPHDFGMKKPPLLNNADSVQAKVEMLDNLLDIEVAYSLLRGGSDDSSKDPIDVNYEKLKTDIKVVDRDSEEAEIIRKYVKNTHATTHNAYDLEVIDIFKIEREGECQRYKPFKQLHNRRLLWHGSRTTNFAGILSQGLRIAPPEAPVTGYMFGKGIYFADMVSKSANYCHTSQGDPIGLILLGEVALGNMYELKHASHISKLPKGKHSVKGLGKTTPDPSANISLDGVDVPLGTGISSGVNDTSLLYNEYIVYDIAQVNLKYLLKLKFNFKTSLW
T1 sequence (P02550 whole entry): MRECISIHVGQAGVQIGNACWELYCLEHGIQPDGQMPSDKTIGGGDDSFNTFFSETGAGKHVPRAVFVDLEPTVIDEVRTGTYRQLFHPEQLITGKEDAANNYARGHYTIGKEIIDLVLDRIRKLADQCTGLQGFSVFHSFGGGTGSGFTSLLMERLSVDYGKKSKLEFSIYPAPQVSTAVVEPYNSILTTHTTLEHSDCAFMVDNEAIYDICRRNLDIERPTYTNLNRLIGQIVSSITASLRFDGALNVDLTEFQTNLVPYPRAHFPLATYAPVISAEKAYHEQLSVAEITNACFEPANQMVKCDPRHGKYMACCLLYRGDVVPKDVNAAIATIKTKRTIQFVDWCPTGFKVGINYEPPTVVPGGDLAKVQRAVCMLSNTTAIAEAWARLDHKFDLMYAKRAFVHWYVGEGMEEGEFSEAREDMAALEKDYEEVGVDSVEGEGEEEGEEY
T1 sequence (P02554 whole entry): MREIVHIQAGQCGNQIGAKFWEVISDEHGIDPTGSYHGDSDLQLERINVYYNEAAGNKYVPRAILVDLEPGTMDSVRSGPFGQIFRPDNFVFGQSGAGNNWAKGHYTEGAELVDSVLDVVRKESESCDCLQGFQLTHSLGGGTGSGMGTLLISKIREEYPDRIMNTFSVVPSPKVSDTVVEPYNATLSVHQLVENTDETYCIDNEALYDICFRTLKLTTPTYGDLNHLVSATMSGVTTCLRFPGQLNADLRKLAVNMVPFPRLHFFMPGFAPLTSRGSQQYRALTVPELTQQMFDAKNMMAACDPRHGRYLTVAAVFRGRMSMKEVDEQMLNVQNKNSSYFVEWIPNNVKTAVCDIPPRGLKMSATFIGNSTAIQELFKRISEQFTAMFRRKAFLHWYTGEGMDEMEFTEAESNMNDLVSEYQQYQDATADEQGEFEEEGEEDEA
T2 sequence (Q9UGN5 whole entry): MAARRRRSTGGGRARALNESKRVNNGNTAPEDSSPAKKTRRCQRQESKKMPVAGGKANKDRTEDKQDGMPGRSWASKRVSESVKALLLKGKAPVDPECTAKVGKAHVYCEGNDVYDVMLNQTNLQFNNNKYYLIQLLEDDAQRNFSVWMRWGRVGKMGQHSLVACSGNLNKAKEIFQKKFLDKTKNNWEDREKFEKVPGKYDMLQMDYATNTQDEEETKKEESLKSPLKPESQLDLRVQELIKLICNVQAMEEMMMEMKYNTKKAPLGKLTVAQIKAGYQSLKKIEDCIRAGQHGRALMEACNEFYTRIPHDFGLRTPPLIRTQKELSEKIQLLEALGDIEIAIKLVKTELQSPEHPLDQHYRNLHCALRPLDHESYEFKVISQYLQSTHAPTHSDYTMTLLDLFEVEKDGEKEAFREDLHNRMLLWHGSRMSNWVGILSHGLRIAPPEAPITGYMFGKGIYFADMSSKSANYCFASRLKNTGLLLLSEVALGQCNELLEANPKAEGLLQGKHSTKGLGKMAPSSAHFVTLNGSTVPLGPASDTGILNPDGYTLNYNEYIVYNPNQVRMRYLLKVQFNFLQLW

Turning to `O=c1cc(-c2ccc(F)cc2)oc2cc(-c3ccoc3)ccc12` [Compound 14, 2–(4-fluorophenyl)-7-(furan-3-yl)-4H-chromen-4-one], in the test on Ishikawa cells [1], the “Autophagy induction (acridine orange staining)” value was “induces autophagy by increasing autophagic flux in a concentration-dependent manner”. In the test on Ishikawa cells [2], the “Cell cycle distribution (G2/M phase arrest)” value is reported as “significant increase in G2/M phase cell cycle arrest”. Further, the half-inhibitory concentration (IC50) was 1 ± 0.4 µM in the test with Ishikawa cell lines; 1.4 ± 0.3 µM on Tubulin; 109 nM against PARP2; 74 nM and 74.6 nM on PARP1. In addition, in the test with Ishikawa cells [3], the “Intracellular ROS levels (DCFDA fluorescence)” value was “significant increase in fluorescence intensity”.
